Source: patent US12186311B2, “Antiproliferative compounds and second active agents for combined use” (Celgene Corporation, priority 2019, dated 2025)

What was measured:
Assay type in all cases: cell-based
[1] = tested on: AMO1 (parental) cell line; experiment: Cell proliferation, combination with Compound 2, combination index (Calcusyn), AMO1; conditions: AMO1, 3 days
Procedure: (§1) AMO1 (parental) and AMO1-PR (pomalidomide resistant) cell lines were treated with various doses of Compound 2 in combination with increasing doses of an MEK inhibitor trametinib for 3 days. Cell proliferation was analyzed using thymidine incorporation assays. Combination index values were calculated by Calcusyn and values below 10^0 represented the synergy between the combination treatments. The results are shown in FIG. 4A (AMO1), FIG. 4B (AMO1 combination index), FIG. 4C (AMO1-PR), and FIG. 4D (AMO1-PR combination index), respectively.
(§2) AMO1 and AMO1-PR (pomalidomide resistant) cell lines were treated with increasing doses of Compound 2 in combination with a PLK1 inhibitor (BI2536). Changes in cell proliferation were studied in response to monotherapy and combinations at Day 3 post treatment. Combination Index was calculated using Calcusyn based method. Combination index values were calculated by Calcusyn and values below 10^0 represented the synergy between the combination treatments. PLK1 is one of the key target gene of MDMS8 (molecularly defined myeloma segment 8), a high risk cluster identified from myeloma genome project. The results are shown in FIG. 6A (AMO1), FIG. 6B (AMO1 combination index), FIG. 6C (AMO1-PR), and FIG. 6D (AMO1-PR combination index), respectively. Inhibition of MDMS8 target gene PLK1 with Compound 2 is synergistic in AMO1 and AMO1-PR cells.
(§3) AMO1 and AMO1-PR (pomalidomide resistant) cell lines were treated with increasing doses of Compound 2 in combination with an NEK2 inhibitor (JH295). Changes in cell proliferation were studied in response to monotherapy and combinations at Day 3 post treatment. Combination index values were calculated by Calcusyn and values below 10^0 represented the synergy between the combination treatments. NEK2 is one of the key target gene of MDMS8 (molecularly defined myeloma segment 8), a high risk cluster identified from myeloma genome project. The results are shown in FIG. 7A (AMO1 combination index) and FIG. 7B (AMO1-PR combination index), respectively. Inhibition of MDMS8 target gene NEK2 with Compound 2 is synergistic in AMO1 and AMO1-PR cells.
(§4) AMO1, AMO1-PR (pomalidomide resistant), K12PE and K12PE-PR (pomalidomide resistant) cell lines were treated with increasing doses of Compound 2 in combination with an AURKB inhibitor (AZD 1152). […] Combination index values were calculated by Calcusyn and values below […] represented the synergy between the combination treatments. […]
(§5) AMO1, AMO1-PR (pomalidomide resistant) cell lines were treated with increasing doses of Compound 2 in combination with a BIRC5 inhibitor (YM155). […] Combination index values were calculated by Calcusyn and values below 10^0 represented the synergy between the combination treatments. […]

[2] = tested on: AMO1-PR (pomalidomide resistant) cell line; experiment: Cell proliferation, combination with Compound 2, combination index (Calcusyn), AMO1-PR; conditions: 3 days
Procedure: as §1, §2, §3, §4, §5

[3] = tested on: MM cell lines OPM.2-P10, H929-1051, KMS12BM PR, L363, JJN3; experiment: 7 day combination assay (Annexin V/7-AAD flow cytometry, fractional product method), MM cell line panel; conditions: panel of 5 MM cell lines, 7 day assay, 3 days priming with second agent
Procedure: Five MM cell lines with acquired or inherent resistance to lenalidomide or pomalidomide were included in the studies (OPM.2-P10, H929-1051, KM[…] PR, L363, and JJN3). […] The assay was performed in a 96-well plate. All MM cell lines were cultured in an incubator at 37° C. with 5% CO2 using the indicated cell culture media containing 1×Penicillin-Streptomycin. The MM cells were primed for 3 days with these second agents at the single agent IC50 value. […] Compound 2 was added to the cells at a dose range of 30 μM-0.00018 μM, depending on the cell line, for a 8 point dose response curve. The cells were incubated at 37° C. for an additional 4 days. At the end of the 7 day treatment, the MM cells were stained with Annexin V and 7-AAD and analyzed on a flow cytometer. Live MM cells were identified as Annexin V and 7-AAD double negative cells. In these experiments, synergy calculations were performed using the fractional product method (Webb, 1963).

[4] = tested on: panel of MM cell lines (H929-1051, KMS11, KMS-12PE, L363, OPM-P10, RPMI8226); experiment: Compound 2 combination with small molecule inhibitors, 3 day Cell Titer-Glo, Highest Single Agent synergy; conditions: six MM cell lines, 3 days, Highest Single Agent method
Procedure: The combination experiments were run twice, each time with replicate data on separate plates. Compounds were pre-spotted into the appropriate wells of 384-well plates using an acoustic dispenser. All MM cell lines were cultured in an incubator at 37° C. with 5% CO2 using the indicated cell culture media containing 1× Penicillin-Streptomycin. Cells were added to the compound containing 384-well plates using a Multidrop Combi Reagent Dispenser and allowed to incubate for 3 days at 37° C. with 5% CO2. After 3 days, cells were assessed for their level of ATP content via Cell Titer-Glo measured on a luminescence detector (PerkinElmer Envision).
The Highest Single Agent (HAS) method was used to detect synergy in the dose response curve data. Combinations were analyzed from a response surface perspective.

Compound	synergy in combination with Compound 2 [3]	synergy in combination with Compound 2 [4]	further results
CC[C@@H]1C(=O)N(C)c2cnc(Nc3ccc(C(=O)NC4CCN(C)CC4)cc3OC)nc2N1C1CCCC1 [BI2536, (R)-4-((8-cyclopentyl-7-ethyl-5-methyl-6-oxo-5,6,7,8-tetrahydropteridin-2-yl)amino)-3-methoxy-N-(1-methylpiperidin-4-yl)benzamide]	–	–	synergy with Compound 2 (combination index) [1]: synergistic; synergy with Compound 2 (combination index) [2]: synergistic
COc1cc(C)[nH]c(=O)c1CNC(=O)c1c(C)n([C@H](C)C2CCN(CC(F)(F)F)CC2)c2ccccc12 [CPI-1205, (R)—N-((4-methoxy-6-methyl-2-oxo-1,2-dihydropyridin-3-yl)methyl)-2-methyl-1-(1-(1-(2,2,2-trifluoroethyl)piperidin-4-yl)ethyl)-1H-indole-3-carboxamide]	synergistic in all 5 cell lines tested	–	–
C#CC(=O)Nc1ccc2c(c1)/C(=C/c1[nH]c(CC)nc1C)C(=O)N2 [JH295, (Z)—N-(3-((2-ethyl-4-methyl-1H-imidazol-5-yl)methylene)-2-oxoindolin-5-yl)propiolamide]	–	–	synergy with Compound 2 (combination index) [1]: synergistic; synergy with Compound 2 (combination index) [2]: synergistic
CC(C)N(CCCNC(=O)Nc1ccc(C(C)(C)C)cc1)C[C@H]1O[C@@H](n2cc(Br)c3c(N)ncnc32)[C@H](O)[C@@H]1O [SGC0946, 5 bromo-7-[5-deoxy-5-[[3-[[[[4-(1,1-dimethylethyl)phenyl]amino]carbonyl]amino]propyl](1-methylethyl)amino]-β-D-ribofuranosyl]-7H-pyrrolo[2,3-d]pyrimidin-4-amine]	–	synergy in one, two, or three out of the six cell lines tested	–
COCCn1c2c([n+](Cc3cnccn3)c1C)C(=O)c1ccccc1C2=O.[Br-] [YM155, 1-(2-methoxyethyl)-2-methyl-4,9-dioxo-3-(pyrazin-2-ylmethyl)-4,9-dihydro-1H-naphtho[2,3-d]imidazol-3-ium bromide]	–	–	synergy with Compound 2 (combination index) [1]: synergistic; synergy with Compound 2 (combination index) [2]: synergistic
Nc1ncn([C@@H]2O[C@H](CO)[C@@H](O)[C@H]2O)c(=O)n1 [azacitidine, 4-amino-1-β-D-ribofuranosyl-1,3,5-triazin-2(1H)-one]	synergy in 4 of the cell lines tested	–	–
CO[C@H]1C[C@@H]2CC[C@@H](C)[C@@](O)(O2)C(=O)C(=O)N2CCCC[C@H]2C(=O)O[C@H]([C@H](C)C[C@@H]2CC[C@@H](OCCO)[C@H](OC)C2)CC(=O)[C@H](C)/C=C(\C)[C@@H](O)[C@@H](OC)C(=O)[C@H](C)C[C@H](C)/C=C/C=C/C=C/1C [everolimus, 40-O-(2-hydroxyethyl)-rapamycin]	–	synergy in combination with Compound 2 in five out of the six cell lines tested	–
Cc1cnc(Nc2ccc(OCCN3CCCC3)cc2)nc1Nc1cccc(S(=O)(=O)NC(C)(C)C)c1 [fedratinib, N-tert-butyl-3-[(5-methyl-2-{4-[2-(pyrrolidin-1-yl)ethoxy]anilino}pyrimidin-4-yl)amino]benzenesulfonamide]	–	synergy in one, two, or three out of the six cell lines tested	–
C=CC(=O)N1CCC[C@@H](n2nc(-c3ccc(Oc4ccccc4)cc3)c3c(N)ncnc32)C1 [ibrutinib, 1-[(3R)-3-[4-amino-3-(4-phenoxyphenyl)-1Hpyrazolo[3,4-d]pyrimidin-1-yl]-1-piperidinyl]-2-propen-1-one]	–	synergy in one, two, or three out of the six cell lines tested	–
C[C@]1(O)C[C@@H](c2nc(-c3ccc4ccc(-c5ccccc5)nc4c3)c3c(N)nccn32)C1 [linsitinib, cis-3-[8-amino-1-(2-phenyl-7-quinolinyl)imidazo[1,5-a]pyrazin-3-yl]-1-methylcyclobutanol]	–	synergy in combination with Compound 2 in four out of the six cell lines tested	–
CC(C)N(C[C@H]1O[C@@H](n2cnc3c(N)ncnc32)[C@H](O)[C@@H]1O)C1CC(CCc2nc3cc(C(C)(C)C)ccc3[nH]2)C1 (stereo partly drawn) [pinometostat, (2R,3R,4S,5R)-2-(6-amino-9H-purin-9-yl)-5-((((1r,3S)-3-(2-(5-(tert-butyl)-1H-benzo[d]imidazol-2-yl)ethyl)cyclobutyl)(isopropyl)amino)methyl)tetrahydrofuran-3,4-diol]	Synergy was also evident	–	–
O=C(/C=C\n1cnc(-c2cc(C(F)(F)F)cc(C(F)(F)F)c2)n1)NNc1cnccn1 [selinexor, (2Z)-3-{3-[3,5-bis(trifluoromethyl)phenyl]-1H-1,2,4-triazol-1-yl}-N′-(pyrazin-2-yl)prop-2-enehydrazide]	–	synergy in one, two, or three out of the six cell lines tested	–
CCN(c1cc(-c2ccc(CN3CCOCC3)cc2)cc(C(=O)NCc2c(C)cc(C)[nH]c2=O)c1C)C1CCOCC1 [tazemetostat, N-[(1,2-dihydro-4,6-dimethyl-2-oxo-3-pyridinyl)methyl]-5-[ethyl(tetrahydro-2H-pyran-4-yl)amino]-4-methyl-4′-(4-morpholinylmethyl)-[1,1′-biphenyl]-3-carboxamide]	synergistic in all 5 cell lines tested	synergy in one, two, or three out of the six cell lines tested	–
